According to the NIST ThermoML archive (doi:10.1016/j.jct.2008.01.022):
± gives the expanded uncertainty stated by the source.

Conditions: 101.33 kPa, Liquid; for viscosity: Capillary tube (Ostwald / Ubbelohde) method

| mass density (293.15 K) [kg/m3] | viscosity (293.15 K) [mPa·s] | mass density (303.15 K) [kg/m3] | viscosity (303.15 K) [mPa·s] | mass density (313.15 K) [kg/m3] | viscosity (313.15 K) [mPa·s] | mass density (323.15 K) [kg/m3] | viscosity (323.15 K) [mPa·s] | mass density (293.15 K, Vibrating tube method) [kg/m3] | mass density (303.15 K, Vibrating tube method) [kg/m3] | mass density (313.15 K, Vibrating tube method) [kg/m3] | mass density (323.15 K, Vibrating tube method) [kg/m3] | Structure (SMILES) |
| --- | --- | --- | --- | --- | --- | --- | --- | --- | --- | --- | --- | --- |
| 1002.43 ± 0.54 | 71.87 ± 0.69 | 994.98 ± 0.54 | 37.86 ± 0.28 | 987.39 ± 0.55 | 21.49 ± 0.16 | 979.64 ± 0.56 | 13.12 ± 0.1 | – | – | – | – | CCC(O)CO (configuration not stated) [1,2-butanediol] |
| 951.86 ± 2.3 | 83.41 ± 1.6 | 944.66 ± 2.3 | 42.25 ± 0.67 | 937.34 ± 2.3 | 24.12 ± 0.39 | 929.9 ± 2.3 | 14.79 ± 0.24 | – | – | – | – | CCCCC(O)CO (configuration not stated) [1,2-hexanediol] |
| – | 76.96 ± 2.1 | – | 39.16 ± 1 | – | 22.52 ± 0.58 | – | 13.66 ± 0.35 | 970.35 ± 5.1 | 963.07 ± 5 | 955.65 ± 5 | 948.12 ± 4.9 | CCCC(O)CO (configuration not stated) [1,2-pentanediol] |
| 1036.3 ± 0.6 | 56.21 ± 0.32 | 1028.92 ± 0.58 | 32.63 ± 0.24 | 1021.39 ± 0.57 | 19.58 ± 0.15 | 1013.7 ± 0.56 | 12.79 ± 0.1 | – | – | – | – | CC(O)CO (configuration not stated) [1,2-propanediol] |
